In the supplement of paper PMC8960247:
Counter-ions that a name gives are not always drawn. ± gives the standard error.

Legend:
621-103 (TSC2-rescued) = assay: relative viability vs DMSO; higher = less cytotoxic; settings: serum: 10% FBS, 72 h
621-102 (TSC2-deficient) = assay: as above; settings: serum: 10% FBS, 72 h
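Note: immortalized renal angiomyolipoma cells stably carrying empty vector or TSC2, dosed in 384-well plates in DMEM, viability normalized to vehicle-treated wells within each plate.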

SMILES	relative viability (621-103 (TSC2-rescued); 0.0001 µM)	relative viability (621-103 (TSC2-rescued); 0.001 µM)	relative viability (621-103 (TSC2-rescued); 0.01 µM)	relative viability (621-103 (TSC2-rescued); 0.1 µM)	relative viability (621-103 (TSC2-rescued); 1 µM)	relative viability (621-103 (TSC2-rescued); 10 µM)	relative viability (621-102 (TSC2-deficient); 0.0001 µM)	relative viability (621-102 (TSC2-deficient); 0.001 µM)	relative viability (621-102 (TSC2-deficient); 0.01 µM)	relative viability (621-102 (TSC2-deficient); 0.1 µM)	relative viability (621-102 (TSC2-deficient); 1 µM)	relative viability (621-102 (TSC2-deficient); 10 µM)
Nc1nc(F)nc2c1ncn2[C@@H]1O[C@H](CO)[C@@H](O)[C@@H]1O [Fludarabine (Fludara)]	108 ± 4.5%	92.6 ± 8.1%	102 ± 1.6%	102.9 ± 1%	102.8 ± 0.34%	86.6 ± 8%	101 ± 3.9%	92 ± 1.4%	106 ± 1.3%	100.6 ± 0.41%	94.7 ± 5.7%	86.22 ± 0.37%
c1ccc2c(CCNc3ccc(Nc4ccncc4)cc3)c[nH]c2c1	113.5 ± 1%	103 ± 1.1%	103 ± 1.1%	106 ± 1.8%	105 ± 2%	64.7 ± 3.8%	131 ± 2%	122 ± 2.9%	119.8 ± 0.41%	114 ± 1.4%	110 ± 6.2%	68.7 ± 4.9%
CC[C@@H]1C(=O)N(C)c2cnc(Nc3ccc(C(=O)NC4CCN(C)CC4)cc3OC)nc2N1C1CCCC1 [BI 2536]	98.6 ± 1.3%	66.74 ± 0.51%	53 ± 1.2%	43.5 ± 1.5%	50.6 ± 0.58%	13 ± 0.48%	98.2 ± 3.1%	80.3 ± 1.5%	47.9 ± 1.7%	44.6 ± 1.5%	51.66 ± 0.21%	29 ± 0.68%
COC(=O)c1ccc2c(C(=Nc3ccc(N(C)C(=O)CN4CCN(C)CC4)cc3)c3ccccc3)c(O)[nH]c2c1 [BIBF1120 (Vargatef)]	86 ± 5.4%	97.2 ± 3.1%	103.3 ± 0.75%	98.9 ± 3.9%	96.9 ± 2.5%	82 ± 2.1%	101 ± 2.6%	111 ± 5.3%	112 ± 1.5%	108 ± 3.1%	105 ± 1.7%	95.8 ± 1.2%
COC(=O)[C@@H]1[C@H]2C[C@H]3c4[nH]c5ccccc5c4CCN3C[C@@H]2CC[C@@H]1O [Yohimbine HCl]	104 ± 3.8%	105 ± 3.1%	105 ± 3.5%	97 ± 3%	99.4 ± 4.7%	96.5 ± 3.8%	106 ± 2.6%	104 ± 1.2%	104 ± 2.2%	100.9 ± 0.15%	100 ± 5.2%	100 ± 2.6%
CC[C@]12C=CCN3CC[C@@]4(c5cc([C@@]6(C(=O)OC)C[C@@H]7C[C@@H](C(C)(F)F)CN(Cc8c6[nH]c6ccccc86)C7)c(OC)cc5N(C)[C@H]4[C@@](O)(C(=O)OC)[C@@H]1OC(C)=O)[C@@H]32 [Vinflunine Tartrate]	99.3 ± 1.7%	93 ± 2.6%	66.9 ± 1.8%	34.9 ± 1.6%	29.8 ± 0.55%	23.6 ± 0.65%	91.28 ± 0.35%	96.3 ± 1.4%	64.68 ± 0.39%	44.8 ± 3.1%	32 ± 1.2%	28.9 ± 0.74%
CS(=O)(=O)c1ccc(C(=O)Nc2ccc(Cl)c(-c3ccccn3)c2)c(Cl)c1 [GDC-0449 (Vismodegib)]	100.4 ± 1%	100 ± 1.6%	103 ± 1.6%	102.1 ± 0.15%	103.2 ± 0.18%	102 ± 0.43%	103 ± 2.5%	111.7 ± 0.39%	111.9 ± 0.39%	111 ± 2.7%	116.2 ± 0.59%	104 ± 1.8%
N#CCNC(=O)c1ccc(-c2ccnc(Nc3ccc(N4CCOCC4)cc3)n2)cc1 [Cyt387]	115 ± 0.87%	105.2 ± 0.63%	110 ± 1.1%	110.2 ± 0.81%	106 ± 3.2%	83.38 ± 0.51%	101 ± 5.9%	109 ± 4.2%	110 ± 1%	113 ± 1.4%	104 ± 0.75%	73.3 ± 2.2%
COc1cc2ncnc(-n3nc(-c4ccccn4)nc3N)c2cc1OC	106 ± 1.7%	107 ± 2.5%	109 ± 4%	108.3 ± 0.77%	110.4 ± 0.79%	48.2 ± 3.8%	101 ± 1.5%	103 ± 2.7%	107 ± 2.2%	98.84 ± 0.53%	94.28 ± 0.36%	49.6 ± 1.6%
C[C@]12CC[C@@H]3c4ccc(O)cc4C[C@@H](CCCCCCCCC[S+]([O-])CCCC(F)(F)C(F)(F)F)[C@H]3[C@@H]1CC[C@@H]2O (some centres undefined) [Fulvestrant]	104 ± 1.3%	101.5 ± 0.32%	100 ± 1.9%	102.2 ± 0.13%	103 ± 1.7%	104 ± 1.2%	119.5 ± 0.33%	117.7 ± 1%	115 ± 2.2%	114.7 ± 0.26%	120 ± 3.1%	113 ± 3.3%
CN(C)C(=O)[C@H](O)[C@H](Cc1ccccc1)NC(=O)c1cc2cc(Cl)ccc2[nH]1	112.8 ± 0.78%	108 ± 2.3%	108.2 ± 0.39%	106 ± 1.7%	106 ± 1.5%	104 ± 1.8%	103 ± 1.9%	94.3 ± 1%	111 ± 2.4%	110 ± 5.4%	89.6 ± 3.6%	111.8 ± 0.78%
CN(C)CC/C=C1/c2ccccc2Sc2ccc(Cl)cc21 [Chlorprothixene]	103 ± 2.4%	106 ± 5.4%	102.3 ± 0.14%	108 ± 2.9%	108.9 ± 0.97%	89.1 ± 2%	93.1 ± 1.6%	102 ± 5.2%	102 ± 4.3%	102.9 ± 0.47%	108 ± 4%	100.8 ± 0.6%
Cc1cc(NS(=O)(=O)c2ccc(N)cc2)no1 [Sulfamethoxazole]	96.09 ± 0.3%	102 ± 2.2%	101 ± 3.9%	101 ± 4.7%	99.4 ± 6%	101 ± 1.7%	105 ± 5.2%	104 ± 3.8%	104.66 ± 0.095%	97.02 ± 0.95%	101.8 ± 0.93%	97.2 ± 2%
O=c1c(O)c(-c2ccc(O)c(O)c2)oc2cc(O)cc(O)c12 [Quercetin (Sophoretin)]	87 ± 2%	79.1 ± 1.4%	88.6 ± 3.3%	95.2 ± 6.2%	89.4 ± 4.9%	86.8 ± 1.1%	64.8 ± 5.1%	65.4 ± 7.3%	68.4 ± 9.3%	75 ± 10%	78.2 ± 10%	73.3 ± 5%
O=c1cc(-c2ccc(O)c(O)c2)oc2cc(O)cc(O)c12 [Luteolin (Luteolol)]	107.6 ± 0.4%	103 ± 3.2%	102 ± 1.6%	100 ± 3.7%	108 ± 4.5%	92.4 ± 2%	108.1 ± 0.74%	104 ± 2.9%	104.7 ± 0.25%	100 ± 3%	105.3 ± 0.74%	101.9 ± 0.18%
Cc1cc(C(C)Nc2ccccc2)c2nc(N3CCOCC3)cc(=O)n2c1 (centres undefined) [TGX-221]	98.3 ± 0.45%	98.8 ± 0.21%	97.7 ± 2%	98.8 ± 1.6%	99.4 ± 1.5%	102 ± 1.8%	94.1 ± 1.7%	106 ± 7.4%	114 ± 3.3%	112 ± 3.6%	114 ± 4%	101 ± 1.8%
Cc1c(CN2CCN(C(=O)[C@H](C)O)CC2)sc2c(N3CCOCC3)nc(-c3cnc(N)nc3)nc12 [GDC-0980 (RC7422)]	100.8 ± 0.26%	98.64 ± 0.9%	91.5 ± 5.1%	75.5 ± 4.4%	35.3 ± 2.2%	30.2 ± 2%	101 ± 1.1%	114 ± 1.6%	99.9 ± 1.4%	89.64 ± 0.5%	39.1 ± 1%	23.3 ± 0.98%
CNC(=O)c1cc(Oc2ccc(NC(=O)Nc3ccc(Cl)c(C(F)(F)F)c3)c(F)c2)ccn1 [BAY 73-4506 (Regorafenib)]	98.01 ± 0.19%	99.11 ± 0.79%	99.9 ± 2.3%	102 ± 1.6%	100 ± 1.8%	63.55 ± 0.47%	109 ± 1.5%	93.9 ± 5.3%	99.5 ± 0.71%	98.4 ± 2.8%	102 ± 1.4%	88.2 ± 1.8%
Nc1[nH]cnc2ncnc1-2 [Adenine HCl]	95.5 ± 2.2%	96.77 ± 0.35%	92.9 ± 4.8%	102.9 ± 0.83%	96.7 ± 2.2%	120 ± 2.1%	93.9 ± 2%	103 ± 0.93%	97.03 ± 0.37%	97.386 ± 0.086%	96.5 ± 6.5%	110.8 ± 1.1%
COc1cc2c(cc1Cc1cccc(Cl)c1F)c(=O)c(C(=O)O)cn2[C@H](CO)C(C)C [Elvitegravir]	101 ± 1.1%	102 ± 1.9%	98.96 ± 0.48%	98.96 ± 0.9%	101.1 ± 1%	99.17 ± 0.59%	96.63 ± 0.78%	107.1 ± 0.31%	105 ± 3.3%	106 ± 1.4%	110 ± 3%	99.7 ± 3.7%
CC(C)c1cc(C(C)C)c(CC(=O)NS(=O)(=O)Oc2c(C(C)C)cccc2C(C)C)c(C(C)C)c1 [Avasimibe (CI-1011)]	108 ± 8.1%	99.44 ± 0.32%	105 ± 3.1%	101 ± 0.45%	97.89 ± 0.25%	97.8 ± 3.3%	106.2 ± 1%	97.5 ± 2.1%	95.2 ± 2.4%	99.6 ± 1.3%	104.3 ± 0.53%	106 ± 3.6%
CCOC(=O)C1=C(COCCN)NC(C)=C(C(=O)OC)C1c1ccccc1Cl (centres undefined) [Amlodipine besylate]	96.2 ± 2.2%	91.1 ± 4.7%	99.4 ± 2.6%	102 ± 9%	94.5 ± 5.2%	57.2 ± 5%	65.2 ± 8.7%	72.3 ± 1.8%	76.1 ± 6.9%	71.3 ± 8.8%	65.1 ± 9.1%	53.6 ± 2.7%
O=C(Nc1cccc(Cl)c1)Nc1ncc(CCNc2ncnc3ccsc23)s1 [SNS-314 Mesylate]	102.7 ± 0.28%	104 ± 1.1%	98.4 ± 1.1%	93.6 ± 1.6%	89.5 ± 1.7%	77.2 ± 2.1%	107 ± 3%	85.4 ± 1.4%	83.06 ± 0.37%	65.9 ± 0.75%	79.5 ± 4.8%	67.3 ± 1.1%
COC(=O)N[C@H](C(=O)N1CCC[C@H]1c1ncc(-c2ccc(-c3ccc(-c4cnc([C@@H]5CCCN5C(=O)[C@@H](NC(=O)OC)C(C)C)[nH]4)cc3)cc2)[nH]1)C(C)C	100 ± 2.7%	98.82 ± 0.6%	100 ± 1.2%	102 ± 2.3%	99.4 ± 2.4%	94.1 ± 1.9%	103 ± 3.2%	105 ± 0.22%	106 ± 1.6%	101 ± 3.8%	96.21 ± 0.14%	81.1 ± 2%
O=C(NC[C@H]1CN(c2ccc(N3CCOCC3=O)cc2)C(=O)O1)c1ccc(Cl)s1 [Rivaroxaban (Xarelto)]	105 ± 2.4%	116 ± 3.4%	121 ± 1.5%	117 ± 2.9%	112 ± 1.1%	104 ± 3.9%	101 ± 5.5%	104.4 ± 0.87%	122.4 ± 0.29%	117 ± 6.5%	116 ± 1.6%	120 ± 3.2%
CCCCC(=O)N(Cc1ccc(-c2ccccc2-c2nnn[nH]2)cc1)[C@H](C(=O)O)C(C)C [Valsartan]	101 ± 3.4%	118.1 ± 0.48%	115 ± 1.9%	114 ± 6.2%	110.2 ± 0.73%	115 ± 2.4%	85.7 ± 5%	113 ± 4.4%	117.3 ± 1%	117 ± 5.9%	107 ± 1.1%	104 ± 1.3%
CC1(COc2ccc3c(c2)ncn3-c2ccc3cccc(N4CCC(N)CC4)c3n2)COC1	96 ± 0.22%	111.5 ± 0.64%	110 ± 3.6%	106 ± 3.9%	77.4 ± 2.8%	4.95 ± 0.59%	109 ± 1.2%	98.7 ± 1.8%	109 ± 4.7%	98.43 ± 0.71%	67.8 ± 1.8%	2.96 ± 0.37%
